One may read the TGI as the concentration at which net growth stops. Low values mean more potent growth arrest, high ones less potent growth arrest. One may read the GI50 as the concentration giving 50% growth inhibition.

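Assay format: 96-well plates, 48-hour exposure. GI50 is the concentration that inhibits growth by half. TGI: total growth inhibition.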

Some test systems named below: CAKI-1 renal; CCRF-CEM leukemia; HCT-116 colon; M14 melanoma; OVCAR-4 ovarian; SF-268 CNS; SNB-19 CNS; UACC-62 melanoma; HOP-92 NSCLC.
What all share (assay): DTP human tumour cell line panel, 48 h

With `COc1cc(/C=C\c2ccc(O)cc2)cc(OC)c1OC`, the TGI in the assay on CAKI-1 renal was over 100 µM; with CCRF-CEM leukemia it was over 100 µM; with HCT-116 colon, over 59.8 µM; with M14 melanoma it was over 100 µM; with OVCAR-4 ovarian, over 100 µM; with SF-268 CNS, 4.63 µM. Also, the TGI in the assay on SNB-19 CNS was over 100 µM; with UACC-62 melanoma, over 29.1 µM.
Regarding `Clc1ccc(CNc2nc3ccccc3nc2-c2cccs2)c(Cl)c1`, the total growth inhibition concentration (TGI) with CCRF-CEM leukemia is over 100 µM; with HCT-116 colon it was over 100 µM; in the assay with HOP-92 NSCLC it was 76.6 µM; with SF-268 CNS, over 100 µM; in the assay with SNB-19 CNS, over 100 µM.
As for `O=C1c2ccccc2-c2cccc3ccc(Cc4ccccc4)c1c23`, the TGI in the assay on CCRF-CEM leukemia, with HCT-116 colon, with HOP-92 NSCLC, with M14 melanoma, in the assay on OVCAR-4 ovarian and in the assay with SF-268 CNS was over 100 µM each time. Besides, the concentration for total growth inhibition (TGI) in the assay on SNB-19 CNS and in the assay on UACC-62 melanoma was over 100 µM in each case.
`CCOc1cccc2nc3cccc(C(=O)NCCN(C)C)c3nc12`: the TGI turned out to be 2.37 µM in the assay with HCT-116 colon; 6.04 µM in the assay on M14 melanoma; 8.58 µM with OVCAR-4 ovarian; 11.2 µM in the assay with SNB-19 CNS; 3.38 µM in the assay with UACC-62 melanoma.
On to `O=C1CCn2c([nH]c3cccc4cccc2c43)=N1`, for which the TGI in the assay on CCRF-CEM leukemia, in the assay with HCT-116 colon, in the assay with M14 melanoma, in the assay on OVCAR-4 ovarian, with SF-268 CNS and in the assay with SNB-19 CNS was over 100 µM in each case. Moreover, the TGI in the assay with UACC-62 melanoma is over 100 µM.
Turning to `CC/C=C\C/C=C\C1CC(=O)NCCCNCCCCN1` (stereo not given), the total growth inhibition concentration (TGI) in the assay with CAKI-1 renal, in the assay on HCT-116 colon, in the assay on HOP-92 NSCLC, in the assay on M14 melanoma, in the assay with OVCAR-4 ovarian and in the assay on SF-268 CNS was over 100 µM each time. Further, the TGI in the assay on SNB-19 CNS is over 100 µM.
Regarding `Cc1ccc2/c(=C/c3ccc(N(C)C)cc3)c3cc(-c4ccccc4)[n+](C)n3c2c1`, the GI50 was 1.57 µM in the assay with CAKI-1 renal; 0.0269 µM in the assay with CCRF-CEM leukemia; 0.0406 µM in the assay on HCT-116 colon; 0.0591 µM in the assay with M14 melanoma; 0.816 µM with OVCAR-4 ovarian; 0.0969 µM in the assay with SNB-19 CNS. Also, in the assay on UACC-62 melanoma, the GI50 is 0.0292 µM. Further, the TGI was 6.58 µM in the assay with CAKI-1 renal; over 100 µM in the assay with HCT-116 colon; 2.54 µM in the assay with M14 melanoma; 20.2 µM in the assay on OVCAR-4 ovarian; over 44.1 µM with SNB-19 CNS; 0.252 µM in the assay with UACC-62 melanoma.
On to `CC(C)(C)C1(O)Cc2ccccc2C(=O)O1` (stereo not given), for which the TGI with CAKI-1 renal, with CCRF-CEM leukemia, in the assay on HCT-116 colon, in the assay on HOP-92 NSCLC, in the assay on M14 melanoma and with OVCAR-4 ovarian was over 100 µM throughout. The concentration for total growth inhibition (TGI) with SF-268 CNS, in the assay with SNB-19 CNS and with UACC-62 melanoma was over 100 µM throughout.
As to `CC1(C)OC(=O)C=C([O-])O1.CC1(C)OC(=O)C=C([O-])O1.O=c1c(O)c(-c2ccc([O-])cc2[O-])oc2cc(O)cc(O)c12.[Ti+4]`, the concentration for total growth inhibition (TGI) is over 100 µM in the assay on CAKI-1 renal; over 100 µM with CCRF-CEM leukemia; over 100 µM in the assay with HCT-116 colon; over 100 µM in the assay on M14 melanoma; over 100 µM in the assay with OVCAR-4 ovarian; 95.5 µM with SF-268 CNS. Also, the total growth inhibition concentration (TGI) in the assay on SNB-19 CNS and in the assay on UACC-62 melanoma was over 100 µM in each case. The GI50 in the assay on UACC-62 melanoma was 33.1 µM.
For the compound `CC1(C)CCc2cc3c(cc2O1)OCCC3=O`, the TGI with CAKI-1 renal, in the assay on CCRF-CEM leukemia, with HCT-116 colon, with HOP-92 NSCLC, with M14 melanoma and in the assay with OVCAR-4 ovarian was over 100 µM in each case. Besides, the TGI with SF-268 CNS, in the assay with SNB-19 CNS and with UACC-62 melanoma was over 100 µM in each case.
As for `N#Cc1c(N)c(C(=O)O)nn(-c2cccc(C(F)(F)F)c2)c1=O`, the TGI in the assay on CAKI-1 renal, in the assay on CCRF-CEM leukemia, in the assay with HCT-116 colon, in the assay on HOP-92 NSCLC, in the assay on M14 melanoma and in the assay on SF-268 CNS was over 100 µM throughout. The total growth inhibition concentration (TGI) with SNB-19 CNS and in the assay with UACC-62 melanoma was over 100 µM in each case.
Take `COc1ccc(C(=O)C(C(=O)CCC(=O)Nc2cccc(C(F)(F)F)c2)c2ccccc2)cc1` (stereo not given): the TGI in the assay on CAKI-1 renal, with CCRF-CEM leukemia, with HCT-116 colon, in the assay on HOP-92 NSCLC, in the assay with M14 melanoma and in the assay with OVCAR-4 ovarian was over 100 µM in each case. Also, the TGI in the assay on SF-268 CNS, in the assay on SNB-19 CNS and in the assay with UACC-62 melanoma was over 100 µM each time.
Turning to `C[C@H]1CCC/C=C/[C@@H]2C[C@H](N)C[C@H]2[C@H](O)/C=C/C(=O)O1`, the GI50 is over 100 µM in the assay with CAKI-1 renal; 83.2 µM in the assay with CCRF-CEM leukemia; over 100 µM in the assay with HCT-116 colon; over 100 µM with HOP-92 NSCLC; over 100 µM in the assay with M14 melanoma; over 100 µM with OVCAR-4 ovarian. Besides, the GI50 in the assay on SF-268 CNS, with SNB-19 CNS and with UACC-62 melanoma was over 100 µM each time. Besides, the TGI with CAKI-1 renal, in the assay on CCRF-CEM leukemia, with HCT-116 colon, in the assay with HOP-92 NSCLC, with M14 melanoma and with OVCAR-4 ovarian was over 100 µM throughout. The TGI in the assay on SF-268 CNS, in the assay with SNB-19 CNS and in the assay with UACC-62 melanoma was over 100 µM in each case.
On to `CC(=O)c1c(C)n([O-])c2cc(C)c(C)cc2[n+]1=O`, for which the total growth inhibition concentration (TGI) in the assay on CAKI-1 renal, in the assay on CCRF-CEM leukemia, with M14 melanoma, in the assay with OVCAR-4 ovarian, with SF-268 CNS and in the assay with SNB-19 CNS was over 100 µM in each case. Further, the TGI in the assay with UACC-62 melanoma is over 100 µM.
In the case of `COc1ccc(C2=NC(C)(C)CO2)cc1`, the TGI in the assay on CAKI-1 renal, in the assay with CCRF-CEM leukemia, in the assay with HCT-116 colon, in the assay on HOP-92 NSCLC, with OVCAR-4 ovarian and in the assay with SF-268 CNS was over 100 µM in each case. Moreover, the total growth inhibition concentration (TGI) in the assay with SNB-19 CNS and in the assay with UACC-62 melanoma was over 100 µM throughout.

These data come from PubChem BioAssay (NCI).
